# According to patent US11998539B2, “Substituted aminoquinolones as DGKalpha inhibitors for immune activation” (Bayer Aktiengesellschaft, priority 2019, dated 2024):
# pIC50: −log10 of the molar value.
# Molecular target: DGKα (Homo sapiens (Human), UniProt P23743)
# Assay: Human DGKα kinase activity inhibition assay (ADP-Glo)
# Assay type: biochemical
# Conditions: recombinant full-length human DGKα, 55 μM ATP, 7 μM 1,2-dioleoyl-sn-glycerol, read-out: IC50 values of examples in in vitro human DGKa kinase activity inhibition assays
# Outline: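 Recombinant full-length human DGKα (C-terminal FLAG, from insect cells) phosphorylated 1,2-dioleoyl-sn-glycerol presented in octyl-glucopyranoside micelles. ADP formed was quantified by ADP-Glo luminescence. Compounds were added from 100-fold DMSO stocks.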
# Chain of DGKα (P23743 other isoform, or with tags, fused parts or gaps): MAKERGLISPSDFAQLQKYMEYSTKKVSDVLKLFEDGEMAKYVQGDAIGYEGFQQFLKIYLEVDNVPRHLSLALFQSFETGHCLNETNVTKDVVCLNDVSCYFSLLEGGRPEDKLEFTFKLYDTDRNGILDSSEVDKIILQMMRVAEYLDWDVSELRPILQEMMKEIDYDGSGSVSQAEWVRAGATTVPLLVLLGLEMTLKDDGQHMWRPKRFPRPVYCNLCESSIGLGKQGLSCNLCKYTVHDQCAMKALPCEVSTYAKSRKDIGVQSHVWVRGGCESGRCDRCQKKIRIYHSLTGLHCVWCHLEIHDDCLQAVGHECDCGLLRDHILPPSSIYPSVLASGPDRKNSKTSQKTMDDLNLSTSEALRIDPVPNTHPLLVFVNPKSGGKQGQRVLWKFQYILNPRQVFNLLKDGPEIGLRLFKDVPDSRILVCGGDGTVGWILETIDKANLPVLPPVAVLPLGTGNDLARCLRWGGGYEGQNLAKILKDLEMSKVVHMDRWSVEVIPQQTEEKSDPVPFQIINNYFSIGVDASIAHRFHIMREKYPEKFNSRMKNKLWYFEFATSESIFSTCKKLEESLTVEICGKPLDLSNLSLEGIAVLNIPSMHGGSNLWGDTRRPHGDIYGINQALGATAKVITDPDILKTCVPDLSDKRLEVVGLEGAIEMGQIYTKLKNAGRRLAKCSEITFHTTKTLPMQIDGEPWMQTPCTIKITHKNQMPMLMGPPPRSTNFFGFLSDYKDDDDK
row,SMILES,pIC50
1,"Cc1ccc2oc(C3CCN(c4c(C#N)c(=O)n(C)c5cc(N(C)C6COC6)ccc45)CC3)nc2c1 [Example 398, 1-methyl-4-[4-(5-methyl-1,3-benzoxazol-2-yl)piperidin-1-yl]-7-[methyl(oxetan-3-yl)amino]-2-oxo-1,2-dihydroquinoline-3-carbonitrile]",8.77
2,"Cc1ccc2oc(C3(C)CCN(c4c(C#N)c(=O)n(C)c5ccc(Br)cc45)CC3)nc2c1 [Example 171, 6-bromo-1-methyl-4-[4-methyl-4-(5-methyl-1,3-benzoxazol-2-yl)piperidin-1-yl]-2-oxo-1,2-dihydroquinoline-3-carbonitrile]",8.82
3,"Cn1c(=O)c(C#N)c(N2CCC(c3cccc4scnc34)CC2)c2ccccc21 [Example 71, 4-[4-(1,3-benzothiazol-4-yl)piperidin-1-yl]-1-methyl-2-oxo-1,2-dihydroquinoline-3-carbonitrile]",7.64
4,"Cn1c(=O)c(C#N)c(N2CCC(c3nc4cc(Cl)ccc4s3)CC2)c2ccccc21 [Example 18, 4-[4-(5-chloro-1,3-benzothiazol-2-yl)piperidin-1-yl]-1-methyl-2-oxo-1,2-dihydroquinoline-3-carbonitrile]",8.43
5,"Cc1ccc2oc(C3CCN(c4c(C#N)c(=O)n(C)c5cc(OC6CCOC6)c(Br)cc45)CC3)nc2c1 (racemic) [Example 424, (rac)-6-bromo-1-methyl-4-[4-(5-methyl-1,3-benzoxazol-2-yl)piperidin-1-yl]-2-oxo-7-[(oxolan-3-yl)oxy]-1,2-dihydroquinoline-3-carbonitrile]",9.52
6,"COc1ccc2c(N3CCC(c4nc5ccccc5s4)CC3)c(C#N)c(=O)n(C)c2c1 [Example 240, 4-[4-(1,3-benzothiazol-2-yl)piperidin-1-yl]-7-methoxy-1-methyl-2-oxo-1,2-dihydroquinoline-3-carbonitrile]",8.60
7,Cn1c(=O)c(C(N)=O)c(N2CCC(c3nnc(-c4cccc(C(F)(F)F)c4)o3)CC2)c2cc(Br)ccc21 [Example 519],7.70
8,"Cn1c(=O)c(C#N)c(N2CCC(c3nc(-c4cccnc4)no3)CC2)c2ccccc21 [Example 370, 1-methyl-2-oxo-4-{4-[3-(pyridin-3-yl)-1,2,4-oxadiazol-5-yl]piperidin-1-yl}-1,2-dihydroquinoline-3-carbonitrile]",6.80
9,"Cc1ccc2oc(C3(C)CCN(c4c(C(N)=O)c(=O)n(C)c5ccc(C#N)cc45)CC3)nc2c1 [Example 208, 6-cyano-1-methyl-4-[4-methyl-4-(5-methyl-1,3-benzoxazol-2-yl)piperidin-1-yl]-2-oxo-1,2-dihydroquinoline-3-carboxamide]",8.47
10,"COCc1ccc2nc(C3(C)CCN(c4c(C(N)=O)c(=O)n(C)c5ccccc45)CC3)oc2c1 [Example 491, 4-{4-[6-(methoxymethyl)-1,3-benzoxazol-2-yl]-4-methylpiperidin-1-yl}-1-methyl-2-oxo-1,2-dihydroquinoline-3-carboxamide]",8.04
11,"CCC(C)c1ccc2c(c1)c(N1CCC(C)(c3nc4cc(C)ccc4o3)CC1)c(C#N)c(=O)n2C (stereo not drawn) [Example 211, 6-(butan-2-yl)-1-methyl-4-[4-methyl-4-(5-methyl-1,3-benzoxazol-2-yl)piperidin-1-yl]-2-oxo-1,2-dihydroquinoline-3-carbonitrile]",6.34
12,"CCCOc1ccc2c(c1)c(N1CCC(C)(c3nc4cc(C)ccc4o3)CC1)c(C#N)c(=O)n2C [Example 279, 1-methyl-4-[4-methyl-4-(5-methyl-1,3-benzoxazol-2-yl)piperidin-1-yl]-2-oxo-6-propoxy-1,2-dihydroquinoline-3-carbonitrile]",5.89
13,"Cc1ccc2oc([C@H]3CCN(c4c(C#N)c(=O)n(C)c5ccccc45)[C@@H](C)C3)nc2c1 [Example 234, 1-methyl-4-[(2S,4S)-2-methyl-4-(5-methyl-1,3-benzoxazol-2-yl)piperidin-1-yl]-2-oxo-1,2-dihydroquinoline-3-carbonitrile]",8.74
14,"Cc1cccc2oc(C3CCN(c4c(C#N)c(=O)n(C)c5ccccc45)CC3)nc12 [Example 17, 1-methyl-4-[4-(4-methyl-1,3-benzoxazol-2-yl)piperidin-1-yl]-2-oxo-1,2-dihydroquinoline-3-carbonitrile]",7.92
15,"Cn1c(=O)c(C#N)c(N2CCC(c3ccc(C#N)cc3)CC2)c2ccccc21 [Example 86, 4-[4-(4-cyanophenyl)piperidin-1-yl]-1-methyl-2-oxo-1,2-dihydroquinoline-3-carbonitrile]",7.27
16,"CCC1(c2nc3cc(C)ccc3o2)CCN(c2c(C#N)c(=O)n(C)c3ccccc23)CC1 [Example 140, 4-[4-ethyl-4-(5-methyl-1,3-benzoxazol-2-yl)piperidin-1-yl]-1-methyl-2-oxo-1,2-dihydroquinoline-3-carbonitrile]",8.80
17,"Cn1c(=O)c(C#N)c(N2CCC(c3cccc(N=S(C)(C)=O)c3)CC2)c2ccccc21 [Example 69, 4-[4-(3-{[dimethyl(oxo)-A6-sulfanylidene]amino}phenyl)piperidin-1-yl]-1-methyl-2-oxo-1,2-dihydroquinoline-3-carbonitrile]",6.98

row,SMILES,pIC50
1,"Cc1ccc2oc(C3CCN(c4c(C#N)c(=O)n(C)c5cc([N+](=O)[O-])c(C)cc45)CC3)nc2c1 [Example 421, 1,6-dimethyl-4-[4-(5-methyl-1,3-benzoxazol-2-yl)piperidin-1-yl]-7-nitro-2-oxo-1,2-dihydroquinoline-3-carbonitrile]",6.86
2,"Cc1ccc2oc(C3CCN(c4c(C(N)=O)c(=O)n(C)c5ccc(C6(C(F)(F)F)CC6)cc45)CC3)nc2c1 [Example 507, 1-methyl-4-[4-(5-methyl-1,3-benzoxazol-2-yl)piperidin-1-yl]-2-oxo-6-[1-(trifluoromethyl)cyclopropyl]-1,2-dihydroquinoline-3-carboxamide]",7.07
3,"Cn1c(=O)c(C(N)=O)c(N2CCC(c3ccc(OC(F)(F)F)cc3)CC2)c2ccccc21 [Example 108, 1-methyl-2-oxo-4-{4-[4-(trifluoromethoxy)phenyl]piperidin-1-yl}-1,2-dihydroquinoline-3-carboxamide]",8.74
4,"Cc1ccc2oc(C3(C)CCN(c4c(C#N)c(=O)n(C)c5c(C#N)cccc45)CC3)nc2c1 [Example 163, 1-methyl-4-[4-methyl-4-(5-methyl-1,3-benzoxazol-2-yl)piperidin-1-yl]-2-oxo-1,2-dihydroquinoline-3,8-dicarbonitrile]",6.84
5,"Cc1ccc2c(c1)c(N1CCCC(c3nc4ccccc4o3)CC1)c(C#N)c(=O)n2C (stereo not drawn) [Example 204, 4-[4-(1,3-benzoxazol-2-yl)azepan-1-yl]-1,6-dimethyl-2-oxo-1,2-dihydroquinoline-3-carbonitrile]",8.15
6,"Cc1ccc2oc(C3(C)CCN(c4c(C#N)c(=O)n(C)c5cc(OCC6(O)CC6)ccc45)CC3)nc2c1 [Example 239, 7-[(1-hydroxycyclopropyl)methoxy]-1-methyl-4-[4-methyl-4-(5-methyl-1,3-benzoxazol-2-yl)piperidin-1-yl]-2-oxo-1,2-dihydroquinoline-3-carbonitrile]",9.22
7,"COc1cccc2c(N3CCC(C)(c4nc5cc(C)ccc5o4)CC3)c(C#N)c(=O)n(C)c12 [Example 260, 8-methoxy-1-methyl-4-[4-methyl-4-(5-methyl-1,3-benzoxazol-2-yl)piperidin-1-yl]-2-oxo-1,2-dihydroquinoline-3-carbonitrile]",7.46
8,"Cn1c(=O)c(C#N)c(N2CCC(C)(c3nc4ccccc4o3)CC2)c2ccc(Cl)cc21 [Example 226, 4-[4-(1,3-benzoxazol-2-yl)-4-methylpiperidin-1-yl]-7-chloro-1-methyl-2-oxo-1,2-dihydroquinoline-3-carbonitrile]",8.89
9,"Cc1ccc2oc(C3CCN(c4c(C#N)c(=O)n(C)c5ccccc45)CC3)nc2c1 [Example 5, 1-methyl-4-[4-(5-methyl-1,3-benzoxazol-2-yl)piperidin-1-yl]-2-oxo-1,2-dihydroquinoline-3-carbonitrile]",8.80
10,"Cn1c(=O)c(C#N)c(N2CCC(c3cnccn3)CC2)c2ccccc21 [Example 150, 1-methyl-2-oxo-4-[4-(pyrazin-2-yl)piperidin-1-yl]-1,2-dihydroquinoline-3-carbonitrile]",5.82
11,"Cc1ccccc1-c1nnc(C2CCN(c3c(C#N)c(=O)n(C)c4cc(O)ccc34)CC2)o1 [Example 444, 7-hydroxy-1-methyl-4-{4-[5-(2-methylphenyl)-1,3,4-oxadiazol-2-yl]piperidin-1-yl}-2-oxo-1,2-dihydroquinoline-3-carbonitrile]",7.09
12,"Cc1ccc2oc(C3(C)CCN(c4c(C#N)c(=O)n(C)c5cc(C6CC(F)(F)C6)ccc45)CC3)nc2c1 [Example 252, 7-(3,3-difluorocyclobutyl)-1-methyl-4-[4-methyl-4-(5-methyl-1,3-benzoxazol-2-yl)piperidin-1-yl]-2-oxo-1,2-dihydroquinoline-3-carbonitrile]",7.89
13,"Cn1cc(C(=O)C(F)(F)F)c2cc(C3CCN(c4c(C#N)c(=O)n(C)c5ccccc45)CC3)ccc21 [Example 72, 1-methyl-4-{4-[1-methyl-3-(trifluoroacetyl)-1H-indol-5-yl]piperidin-1-yl}-2-oxo-1,2-dihydroquinoline-3-carbonitrile]",7.52
14,"Cc1ccc2oc(C3CCN(c4c(C#N)c(=O)n(C)c5ccc(F)cc45)CC3)nc2c1 [Example 217, 6-fluoro-1-methyl-4-[4-(5-methyl-1,3-benzoxazol-2-yl)piperidin-1-yl]-2-oxo-1,2-dihydroquinoline-3-carbonitrile]",9.00
15,Cn1c(=O)c(C#N)c(N2CCC(c3cccc4ccoc34)CC2)c2ccccc21 [Example 73],7.48
16,"Cc1ccc2oc(C3CCN(c4c(C#N)c(=O)n(C)c5cc(OCC(=O)O)ccc45)CC3)nc2c1 [Example 416, ({3-cyano-1-methyl-4-[4-(5-methyl-1,3-benzoxazol-2-yl)piperidin-1-yl]-2-oxo-1,2-dihydroquinolin-7-yl}oxy)acetic acid]",7.47
